This note sets out measurements from ChEMBL document CHEMBL1201862, “PubChem BioAssay data set” (2004).

“And” between values parts separate entries of the source, which are not always exact repeats. Identical values can stand only once.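 96-well plates; 48 h exposure; 5 concentrations. Endpoints by linear interpolation between flanking doses. Not reached: highest tested concentration assigned. GI50 marks 50% less growth.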 The source made the active and inactive calls. Cut-off read from the data, not from the text of the source: active = GI50 up to about 1.1 µM and inactive = higher.

Test systems include SN12C; SK-MEL-5; EKVX; SW-620; Malme-3M; SK-MEL-28; U-251; MOLT-4; HOP-62; CCRF-CEM; SF-268; RXF 393; NCI-H460; MDA-MB-435; HCT-116; HCT-15; TK-10; NCI/ADR-RES; SF-539; HOP-92.
Experiment in all cases: DTP human tumour cell line panel, 48 h

By GI50 is commonly meant the concentration at which growth is held to half of that of the control.

In the case of `NC(CC(O)(c1ccccc1)c1ccccc1)c1ccccc1S` (stereo not given), the GI50 with SN12C is 18.8 µM (inactive); in the test on SK-MEL-5, 13 µM (inactive); with EKVX, 7.94 µM (inactive); in the test with SW-620 it was 16.7 µM (inactive); in the test on Malme-3M, 25.7 µM (inactive); with SK-MEL-28, 17.5 µM (inactive). Further, the GI50 with U-251 is 15.1 µM (inactive); in the test with MOLT-4 it was 21.4 µM (inactive); in the test with HOP-62 it was 15.7 µM (inactive); in the test with CCRF-CEM, 13 µM (inactive); in the test with SF-268, 9.71 µM (inactive); in the test with RXF 393 it was 17 µM (inactive). The GI50 is 18 µM (inactive) with NCI-H460; 14.8 µM (inactive) with MDA-MB-435; 13.2 µM (inactive) in the test with HCT-116; 15.2 µM with HCT-15; 15.7 µM (inactive) with TK-10; 16.6 µM (inactive) with NCI/ADR-RES.
As to `CC(Br)C(=O)NN1C2=C(Nc3ccccc31)c1cccc3cccc2c13` (stereo not given), the GI50 in the test on SN12C was > 100 µM (inactive); in the test with SK-MEL-5 it was 62.1 µM (inactive); in the test on EKVX, > 100 µM (inactive); with SW-620, > 100 µM (inactive); in the test on SF-539, > 100 µM (inactive); with Malme-3M it was > 100 µM (inactive). Besides, the GI50 is > 100 µM (inactive) in the test with SK-MEL-28; 41.5 µM (inactive) in the test with U-251; 36.6 µM (inactive) with MOLT-4; 22 µM (inactive) in the test with HOP-62; 61.4 µM (inactive) with CCRF-CEM; > 100 µM (inactive) in the test on SF-268. Besides, the GI50 in the test on RXF 393 is > 100 µM (inactive); in the test with NCI-H460 it was 49.4 µM (inactive); with MDA-MB-435, > 100 µM (inactive); in the test with HCT-116, > 100 µM (inactive); with HCT-15, 66.1 µM; in the test with TK-10 it was 96.4 µM (inactive). Moreover, the GI50 in the test with NCI/ADR-RES was 65.2 µM (inactive).
On to `C=C1C(=O)O[C@@H]2O[C@@]3(C)CC[C@H]4[C@H](C)CC[C@@H]1[C@@]24O3` [DEOXYARTEMISITENE], for which the GI50 was 19 µM (inactive) in the test on SN12C; 19.1 µM (inactive) in the test with SK-MEL-5; 13.3 µM (inactive) in the test on EKVX; 15.5 µM (inactive) in the test with SW-620; 3.49 µM (inactive) in the test on HOP-92; 11 µM (inactive) in the test with SF-539. For the same molecule, the GI50 is 14.2 µM (inactive) with Malme-3M; 40.6 µM (inactive) in the test with SK-MEL-28; 43.4 µM (inactive) with U-251; 9.08 µM (inactive) with MOLT-4; 49.5 µM (inactive) in the test with HOP-62; 3.47 µM (inactive) in the test on CCRF-CEM. The GI50 is 28.1 µM (inactive) in the test with SF-268; 14.4 µM (inactive) with RXF 393; 22.3 µM (inactive) in the test on NCI-H460; 29.2 µM (inactive) in the test with MDA-MB-435; 10.8 µM (inactive) in the test on HCT-116; 10.9 µM in the test with HCT-15. The GI50 with TK-10 was 15.9 µM (inactive).
As to `CC(C)(C)OC(=O)N/N=C(/N)Cc1ccc(Cl)cc1`, the GI50 in the test with SN12C, with SK-MEL-5, in the test on EKVX, with SW-620, with Malme-3M and with SK-MEL-28 was > 100 µM (inactive) each time. For the same molecule, the GI50 with U-251, in the test with MOLT-4, in the test on HOP-62, in the test with CCRF-CEM, in the test on SF-268 and with RXF 393 was > 100 µM (inactive) each time. Besides, the GI50 is > 100 µM (inactive) in the test on NCI-H460; > 100 µM (inactive) with MDA-MB-435; > 100 µM (inactive) in the test on HCT-116; above 100 µM in the test with HCT-15; > 100 µM (inactive) with TK-10; > 100 µM (inactive) with NCI/ADR-RES.
With `COc1cc([N+](=O)[O-])cc2c1NC(=O)C2(C)SC` (stereo not given), the GI50 with SN12C is 58.3 µM (inactive); with SK-MEL-5, > 100 µM (inactive); in the test on EKVX, > 100 µM (inactive); in the test with SW-620, 69 µM (inactive); in the test on Malme-3M, > 100 µM (inactive); in the test with SK-MEL-28, > 100 µM (inactive). The GI50 in the test on U-251 is > 100 µM (inactive); with MOLT-4, 31.6 µM (inactive); in the test with HOP-62 it was > 100 µM (inactive); with CCRF-CEM, 40.9 µM (inactive); in the test on SF-268, > 100 µM (inactive); in the test on RXF 393, 86.7 µM (inactive). Besides, the GI50 is > 100 µM (inactive) in the test with NCI-H460; 53.1 µM (inactive) with MDA-MB-435; 36.7 µM (inactive) in the test with HCT-116; above 100 µM with HCT-15; > 100 µM (inactive) with TK-10; 94.6 µM (inactive) in the test with NCI/ADR-RES.
Turning to `CC1=CC(=O)CC2(C)CCC(C(C)CC(=O)CC(C)C)CC12OO` (stereo not given), the GI50 in the test on SN12C is 17.6 µM (inactive) and 18.7 µM (inactive); in the test with SK-MEL-5, 15.7 µM (inactive) and 21 µM (inactive); in the test on EKVX, 17.9 µM (inactive) and 19.9 µM (inactive); in the test with SW-620, 19 µM (inactive) and 17.3 µM (inactive); in the test with HOP-92 it was 15.9 µM (inactive) and 18 µM (inactive); in the test with SF-539, 16.4 µM (inactive) and 15.2 µM (inactive). Further, the GI50 in the test on Malme-3M is 29.8 µM (inactive) and 16.7 µM (inactive); in the test with SK-MEL-28 it was 18.5 µM (inactive) and 15.2 µM (inactive); in the test with U-251 it was 19 µM (inactive) and 17.6 µM (inactive); with MOLT-4, 14.8 µM (inactive) and 15.8 µM (inactive); in the test on CCRF-CEM, 20.7 µM (inactive) and 19.6 µM (inactive); with SF-268 it was 17 µM (inactive) and 20 µM (inactive). In addition, the GI50 in the test on MDA-MB-435 was 17.5 µM (inactive) and 18.3 µM (inactive); in the test with HCT-116 it was 16.2 µM (inactive) and 16.1 µM (inactive); in the test with TK-10, 19.3 µM (inactive) and 18.7 µM (inactive); in the test with NCI/ADR-RES it was 24.8 µM (inactive) and 23.1 µM (inactive).
With `N=C1N(S(=O)(=O)c2ccccc2)[C@@H](Cc2ccccc2)[C@H](c2ccccc2)C1(c1ccccc1)c1ccccc1`, the GI50 in the test with SN12C is > 100 µM (inactive); in the test with SK-MEL-5 it was 23.6 µM (inactive); in the test with EKVX, 37.2 µM (inactive); with SW-620 it was > 100 µM (inactive); in the test on SF-539 it was > 100 µM (inactive); in the test with Malme-3M it was > 100 µM (inactive). For the same molecule, the GI50 in the test with SK-MEL-28 is > 100 µM (inactive); in the test with U-251, 64.1 µM (inactive); in the test on MOLT-4, 16.8 µM (inactive); in the test with HOP-62, > 100 µM (inactive); in the test on CCRF-CEM, 27.2 µM (inactive); with SF-268, > 100 µM (inactive). Also, the GI50 in the test with RXF 393 is 63.2 µM (inactive); in the test with NCI-H460, 36.7 µM (inactive); in the test on MDA-MB-435 it was > 100 µM (inactive); with HCT-116, 40.4 µM (inactive); in the test on HCT-15 it was above 100 µM; in the test with TK-10, > 100 µM (inactive). In addition, the GI50 with NCI/ADR-RES is 70.1 µM (inactive).
For the molecule `O=C(O)/C=C/c1ccc(O)c(O)c1` [CAFFEIC ACID], the GI50 was > 100 µM (inactive) in the test on SN12C; > 100 µM (inactive) in the test on SK-MEL-5; > 100 µM (inactive) with EKVX; > 43.3 µM (inactive) with SW-620; > 100 µM (inactive) in the test on HOP-92; > 100 µM (inactive) with SF-539. Also, the GI50 in the test on Malme-3M was > 100 µM (inactive); in the test on SK-MEL-28, > 100 µM (inactive); in the test with U-251, > 100 µM (inactive); with MOLT-4 it was > 100 µM (inactive); with HOP-62 it was > 100 µM (inactive); with CCRF-CEM it was > 57.5 µM (inactive). The GI50 in the test with SF-268 was > 100 µM (inactive); in the test on RXF 393 it was > 100 µM (inactive); with NCI-H460 it was > 100 µM (inactive); in the test with HCT-116, > 100 µM (inactive); in the test on HCT-15, above 100 µM; in the test with TK-10 it was > 100 µM (inactive).
